Biological target: T1, Cys12 of the KRAS 4B G12C protein (Homo sapiens, UniProt P01116, G12C)
T1 construct: This protein contained 188 amino acids in total, including an N-terminal 6-Histidine tag; made in house; host or cells: E. coli BL21
Test: In vitro covalent adduct formation (CAF) assay, LC-MS intact mass
Format: binding
Conditions: 10 uM compound, 60 min
Method: This Example provides a protocol for assessing covalent adduct formation (CAF) between the compounds of the present application and KRAS.
In vitro covalent adduct formation assay: Covalent adduct formation (CAF) reactions between Cys12 of the KRAS 4B G12C protein and some of the compounds of Tables 1 to 4 were measured in vitro using liquid chromatography-mass spectrometry (LC-MS).
Recombinant Human KRAS 4B protein containing the G12C mutation was used in compound screening experiments. This protein contained 188 amino acids in total, including an N-terminal 6-Histidine tag, followed by a Tobacco Etch Virus (TEV) tag, followed by residues 1-169 of the native KRAS 4B sequence. The exact mass of the protein was 21,310 Da as determined by mass spectrometry. The full amino acid sequence is shown below: […]
The recombinant protein was expressed in E. coli BL21 cells and purified using affinity chromatography via a Ni-NTA column. Protein stocks were nucleotide-exchanged to >95% GDP, concentrated to 4 mg/mL, and stored at −80° C. in storage buffer (50 mM HEPES pH 7.4, 50 mM NaCl, 5 mM MgCl2, 1 mM DTT). Pure KRAS 4B G12C protein was diluted to a concentration of 5 μM in Tris Buffered Saline, pH 7.4. The compounds were dissolved in DMSO and added to the diluted protein to make a 10 μM concentration. The total DMSO concentration in the reaction was 4%. The reaction was mixed by pipetting and incubated at 22° C. for one hour. Aliquots of the reaction were taken over time and diluted 2:1 in 0.1% formic acid. The intact mass of the protein samples was measured by LC-MS using a QExactive+ mass spectrometer (Thermo Scientific). An amount of 500 ng total protein was injected onto a C8 reverse phase column, eluted with a seven-minute gradient of 30%-90% acetonitrile/0.1% formic acid, and analyzed for intact mass by the mass spectrometer. Adducts identified were confirmed to be within 1 Dalton of the expected mass, and the relative ratios of free:adduct protein were used to quantify the percentage of protein bound by the compound. CAF reactions were run in duplicate, with a typical variability of ±5%.

Row | % CAF 10 uM @ 60 min | SMILES
1 | 97.4% | C=CC(=O)N1CCN(c2nc(=O)n3c4c(c(-c5cc(Cl)c(F)cc5F)c(C(F)(F)F)cc24)SC[C@@H]3CN2C[C@@H]3C[C@H]2CO3)CC1 (atropisomer, axis not shown) [Example 1341, (3S,10R)-3-(((1S,4S)-2-oxa-5-azabicyclo[2.2.1]heptan-5-yl)methyl)-7-(4-acryloylpiperazin-1-yl)-10-(5-chloro-2,4-difluorophenyl)-9-(trifluoromethyl)-2,3-dihydro-5H-[1,4]thiazino[2,3,4-ij]quinazolin-5-one]
2 | 96.7% | C=CC(=O)N1CCN(c2nc(=O)n3c4c(c(-c5ccc(F)cc5F)c(C(F)(F)F)cc24)SC[C@@H]3CN2CCN(C3CC3)CC2)CC1 (atropisomer, axis not shown) [Example 1390, (3S,10R)-7-(4-acryloylpiperazin-1-yl)-3-((4-cyclopropylpiperazin-1-yl)methyl)-10-(2,4-difluorophenyl)-9-(trifluoromethyl)-2,3-dihydro-5H-[1,4]thiazino[2,3,4-ij]quinazolin-5-one]
3 | 95.3% | C=CC(=O)N1C[C@H](C)N(c2nc(=O)n3c4c(c(-c5cccc6cnn(C)c56)c(C(F)(F)F)cc24)SC[C@@H]3CN2CCN(C3CC3)CC2)C[C@H]1C (atropisomer, axis not shown) [Example 1388, (3S,10S)-7-((2S,5R)-4-acryloyl-2,5-dimethylpiperazin-1-yl)-3-((4-cyclopropylpiperazin-1-yl)methyl)-10-(1-methyl-1H-indazol-7-yl)-9-(trifluoromethyl)-2,3-dihydro-5H-[1,4]thiazino[2,3,4-ij]quinazolin-5-one]

More lines, now with the values behind:

Row | SMILES | % CAF 10 uM @ 60 min
4 | C=CC(=O)N1[C@H](C)CN(c2nc(=O)n3c4c(c(-c5cc(Cl)c(F)cc5F)c(C(F)(F)F)cc24)SC[C@@H]3COCOC)C[C@@H]1C (atropisomer, axis not shown) [Example 1370, (3S,10R)-7-((3S,5R)-4-acryloyl-3,5-dimethylpiperazin-1-yl)-10-(5-chloro-2,4-difluorophenyl)-3-((methoxymethoxy)methyl)-9-(trifluoromethyl)-2,3-dihydro-5H-[1,4]thiazino[2,3,4-ij]quinazolin-5-one] | 94.4%
5 | C=CC(=O)N1C[C@H](C)N(c2nc(=O)n3c4c(c(-c5cc(Cl)c(F)cc5F)c(C(F)(F)F)cc24)SC[C@@H]3CN2C[C@@H]3C[C@H]2CO3)C[C@H]1C (atropisomer, axis not shown) [Example 1335, (3S,10S)-3-(((1S,4S)-2-oxa-5-azabicyclo[2.2.1]heptan-5-yl)methyl)-7-((2S,5R)-4-acryloyl-2,5-dimethylpiperazin-1-yl)-10-(5-chloro-2,4-difluorophenyl)-9-(trifluoromethyl)-2,3-dihydro-5H-[1,4]thiazino[2,3,4-ij]quinazolin-5-one] | 29.7%
6 | C=CC(=O)N1C[C@H](C)N(c2nc(=O)n3c4c(c(-c5cc(Br)c(F)cc5F)c(C(F)(F)F)cc24)SCC2(COC2)C3)C[C@H]1C (atropisomer, axis not shown) [Example 1445, (R)-8′-((2S,5R)-4-Acryloyl-2,5-dimethylpiperazin-1-yl)-11′-(5-bromo-2,4-difluorophenyl)-10′-(trifluoromethyl)-2′H,4′H,6′H-spiro[oxetane-3,3′-[1,4]thiazepino[2,3,4-ij]quinazolin]-6′-one] | 95%
7 | C=CC(=O)N1C[C@H](C)N(c2nc(=O)n3c4c(c(-c5cc(Cl)c(F)cc5F)c(C(F)(F)F)cc24)SC[C@@H]3CN2C[C@@H]3C[C@H]2CO3)C[C@H]1C (atropisomer, axis not shown) [Example 1334, (3S,10R)-3-(((1S,4S)-2-oxa-5-azabicyclo[2.2.1]heptan-5-yl)methyl)-7-((2S,5R)-4-acryloyl-2,5-dimethylpiperazin-1-yl)-10-(5-chloro-2,4-difluorophenyl)-9-(trifluoromethyl)-2,3-dihydro-5H-[1,4]thiazino[2,3,4-ij]quinazolin-5-one] | 80%

Same assay, conditions: 10 uM compound, 60 min incubation

Row | % CAF 10 uM @ 60 min | SMILES
8 | 95.7% | C=CC(=O)N1[C@H](C)CN(c2nc(=O)n3c4c(c(-c5ccc(F)cc5)c(C(F)(F)F)cc24)SC[C@H](N2CCCC2)C3)C[C@@H]1C [Example 1118, (R)-8-((3S,5R)-4-acryloyl-3,5-dimethylpiperazin-1-yl)-11-(4-fluorophenyl)-3-(pyrrolidin-1-yl)-10-(trifluoromethyl)-3,4-dihydro-2H,6H-[1,4]thiazepino [2,3,4-ij]quinazolin-6-one]
9 | 54.1% | C=CC(=O)N1[C@H](C)CN(c2nc(=O)n3c4c(c(-c5cccc6cnn(C)c56)c(C(F)(F)F)cc24)SCC2(COC2)C3)C[C@@H]1C (atropisomer, axis not shown) [Example 1133, (R)-8′-((3S,5R)-4-acryloyl-3,5-dimethylpiperazin-1-yl)-11′-(1-methyl-1H-indazol-7-yl)-10′-(trifluoromethyl)-2′H,4′H,6′H-spiro[oxetane-3,3′-[1,4]thiazepino [2,3,4-ij]quinazolin]-6′-one]
10 | 83.4% | C=CC(=O)N1[C@H](C)CN(c2nc(=O)n3c4c(c(-c5cc(Cl)c(F)cc5F)c(C(F)(F)F)cc24)SC[C@@H](N2CCCC2)C3)C[C@@H]1C (atropisomer, axis not shown) [Example 1137, (3S,11R)-8-((3S,5R)-4-acryloyl-3,5-dimethylpiperazin-1-yl)-11-(5-chloro-2,4-difluorophenyl)-3-(pyrrolidin-1-yl)-10-(trifluoromethyl)-3,4-dihydro-2H,6H-[1,4]thiazepino [2,3,4-ij]quinazolin-6-one]
11 | 88.8% | C=CC(=O)N1[C@H](C)CN(c2nc(=O)n3c4c(c(-c5cc(Cl)c(F)cc5F)c(C(F)(F)F)cc24)SCC2(COC2)C3)C[C@@H]1C [Example 1100, 8′-((3S,5R)-4-acryloyl-3,5-dimethylpiperazin-1-yl)-11′-(5-chloro-2,4-difluorophenyl)-10′-(trifluoromethyl)-2′H,4′H,6′H-spiro[oxetane-3,3′-[1,4]thiazepino [2,3,4-ij]quinazolin]-6′-one]
12 | 95.5% | C=CC(=O)N1C[C@H](C)N(c2nc(=O)n3c4c(c(-c5cc(Cl)c(F)cc5F)c(C(F)(F)F)cc24)SCC2(COC2)C3)C[C@H]1C (single isomer, unassigned) [Example 1121]

Same assay, conditions: after 60 min

Row | CAF (% binding after 60 min) | SMILES
13 | 97% | C=CC(=O)N1CCN(c2nc(=O)n3c4c(c(-c5ccc(F)cc5)c(C(F)(F)F)cc24)SC[C@H](OCOC)C3)CC1 [Example 1005, (R)-8-(4-acryloylpiperazin-1-yl)-11-(4-fluorophenyl)-3-(methoxymethoxy)-10-(trifluoromethyl)-3,4-dihydro-2H,6H-[1,4]thiazepino[2,3,4-ij]quinazolin-6-one]
14 | 85% | C=CC(=O)N1CCN(c2nc(=O)n3c4c(c(-c5cc(Cl)c(F)cc5F)c(C(F)(F)F)cc24)SC[C@H](OCCOC)C3)CC1 [Example 1022, (3R)-8-(4-acryloylpiperazin-1-yl)-11-(5-chloro-2,4-difluorophenyl)-3-(2-methoxyethoxy)-10-(trifluoromethyl)-3,4-dihydro-2H,6H-[1,4]thiazepino[2,3,4-ij]quinazolin-6-one]
15 | 98% | C=CC(=O)N1CCN(c2nc(=O)n3c4c(c(-c5ccc(F)cc5)c(C(F)(F)F)cc24)SC[C@@H](OCCOC)C3)CC1 [Example 1017, (S)-8-(4-acryloylpiperazin-1-yl)-11-(4-fluorophenyl)-3-(2-methoxyethoxy)-10-(trifluoromethyl)-3,4-dihydro-2H,6H-[1,4]thiazepino[2,3,4-ij]quinazolin-6-one]

The next lines start with the compound.

Row | SMILES | CAF (% binding after 60 min)
16 | C=CC(=O)N1[C@H](C)CN(c2nc(=O)n3c4c(c(-c5ccc(F)c(Cl)c5)c(C(F)(F)F)cc24)SC[C@@H](OC)C3)C[C@@H]1C [Example 1046, (S)-8-((3S,5R)-4-acryloyl-3,5-dimethylpiperazin-1-yl)-11-(3-chloro-4-fluorophenyl)-3-methoxy-10-(trifluoromethyl)-3,4-dihydro-2H,6H-[1,4]thiazepino[2,3,4-ij]quinazolin-6-one] | 96%
17 | C=CC(=O)N1[C@H](C)CN(c2nc(=O)n3c4c(c(-c5ccc(F)cc5F)c(C(F)(F)F)cc24)SC[C@H](OCOC)C3)C[C@@H]1C [Example 1011, (3R)-8-((3S,5R)-4-acryloyl-3,5-dimethylpiperazin-1-yl)-11-(2,4-difluorophenyl)-3-(methoxymethoxy)-10-(trifluoromethyl)-3,4-dihydro-2H,6H-[1,4]thiazepino[2,3,4-ij]quinazolin-6-one] | 97%
